This note sets out measurements from US12172995B2, “Substituted indole and indazole compounds” (BRISTOL-MYERS SQUIBB COMPANY, priority 2018, dated 2024).

Type in all cases: cell-based
The target of experiment [1] is T1, human TLR7 (Homo sapiens, UniProt Q9NYK1).
T1 construct: host or cells: HEK-Blue cells
T1 sequence (Q9NYK1 27-1049): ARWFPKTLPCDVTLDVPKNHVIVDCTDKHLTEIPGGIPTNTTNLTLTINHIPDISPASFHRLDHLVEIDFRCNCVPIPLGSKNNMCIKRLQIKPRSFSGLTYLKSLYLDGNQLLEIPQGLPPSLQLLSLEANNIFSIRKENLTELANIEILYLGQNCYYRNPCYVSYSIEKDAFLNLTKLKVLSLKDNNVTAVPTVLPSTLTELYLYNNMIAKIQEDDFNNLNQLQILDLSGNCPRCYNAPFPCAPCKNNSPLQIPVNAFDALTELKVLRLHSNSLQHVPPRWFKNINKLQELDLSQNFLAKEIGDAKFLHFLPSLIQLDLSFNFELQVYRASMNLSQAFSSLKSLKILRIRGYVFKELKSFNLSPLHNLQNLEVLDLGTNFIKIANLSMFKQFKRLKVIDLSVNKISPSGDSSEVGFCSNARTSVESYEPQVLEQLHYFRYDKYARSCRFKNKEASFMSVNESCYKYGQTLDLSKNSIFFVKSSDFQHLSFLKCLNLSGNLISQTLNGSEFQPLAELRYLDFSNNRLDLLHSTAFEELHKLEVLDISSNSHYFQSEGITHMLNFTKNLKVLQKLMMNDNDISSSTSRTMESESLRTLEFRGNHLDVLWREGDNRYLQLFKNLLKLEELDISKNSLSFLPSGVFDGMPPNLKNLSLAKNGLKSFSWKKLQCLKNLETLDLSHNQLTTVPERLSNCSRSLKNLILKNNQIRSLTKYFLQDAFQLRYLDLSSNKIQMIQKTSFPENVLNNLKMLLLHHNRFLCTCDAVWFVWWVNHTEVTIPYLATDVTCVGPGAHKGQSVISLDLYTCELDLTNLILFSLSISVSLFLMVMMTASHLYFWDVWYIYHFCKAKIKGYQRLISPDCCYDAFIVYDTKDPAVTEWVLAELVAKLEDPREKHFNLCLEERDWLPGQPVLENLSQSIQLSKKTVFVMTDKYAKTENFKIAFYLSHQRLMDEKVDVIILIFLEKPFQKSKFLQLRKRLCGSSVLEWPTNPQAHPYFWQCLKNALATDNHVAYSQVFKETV
As to the kind of experiment: TLR7 inhibition reporter assay (HEK-Blue SEAP). As to conditions: HEK-Blue cells overexpressing human TLR7, stimulated with gardiquimod 7.5 μM, 22 hour incubation. The essentials: (§1)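 Reporter HEK-Blue lines; cpd 0.05 nM–50 μM, 30 min preincubation RT; agonist: TLR7 gardiquimod 7.5 μM, TLR8 R848 15.9 μM, TLR9 ODN2006 5 nM; 22 h 37 °C; SEAP detected colorimetrically; % inhib vs known inhibitor.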
For orientation: In a reporter assay the amount or activity of a reporter protein is the signal.

For experiment [2], the target named is T2, human TLR8 (Homo sapiens, UniProt Q9NR97).
T2 construct: host or cells: HEK-Blue cells
T2 sequence (Q9NR97 27-1041): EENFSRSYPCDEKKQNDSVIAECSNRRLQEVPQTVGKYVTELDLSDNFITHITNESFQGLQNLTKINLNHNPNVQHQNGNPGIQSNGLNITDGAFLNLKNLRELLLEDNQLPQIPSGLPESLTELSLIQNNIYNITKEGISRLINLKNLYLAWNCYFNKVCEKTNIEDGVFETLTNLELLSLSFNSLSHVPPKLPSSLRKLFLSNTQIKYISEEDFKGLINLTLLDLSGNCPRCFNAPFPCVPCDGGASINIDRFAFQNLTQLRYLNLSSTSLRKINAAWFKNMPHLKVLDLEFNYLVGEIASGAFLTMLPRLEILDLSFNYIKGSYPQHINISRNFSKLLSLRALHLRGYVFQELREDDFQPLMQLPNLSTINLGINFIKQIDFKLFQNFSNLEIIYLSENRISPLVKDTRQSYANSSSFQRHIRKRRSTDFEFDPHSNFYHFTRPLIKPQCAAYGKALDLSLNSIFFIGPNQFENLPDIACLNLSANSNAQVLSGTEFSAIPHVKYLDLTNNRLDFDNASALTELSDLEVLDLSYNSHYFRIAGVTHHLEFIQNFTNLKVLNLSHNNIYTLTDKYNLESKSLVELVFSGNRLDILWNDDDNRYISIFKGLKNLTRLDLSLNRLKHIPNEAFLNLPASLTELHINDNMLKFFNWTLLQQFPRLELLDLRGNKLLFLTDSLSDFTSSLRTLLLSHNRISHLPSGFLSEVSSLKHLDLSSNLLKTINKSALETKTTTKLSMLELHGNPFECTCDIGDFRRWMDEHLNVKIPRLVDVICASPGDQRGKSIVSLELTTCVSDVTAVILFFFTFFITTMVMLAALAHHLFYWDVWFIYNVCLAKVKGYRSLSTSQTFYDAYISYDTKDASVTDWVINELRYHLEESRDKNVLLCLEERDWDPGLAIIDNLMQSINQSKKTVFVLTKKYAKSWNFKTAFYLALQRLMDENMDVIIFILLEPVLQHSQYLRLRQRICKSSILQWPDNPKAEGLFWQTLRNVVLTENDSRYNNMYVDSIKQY
The experiment is described as follows: TLR8 inhibition reporter assay (HEK-Blue SEAP). As to conditions: HEK-Blue cells overexpressing human TLR8, stimulated with R848 15.9 μM, 22 hour incubation. The gist of the method:
as §1

Experiment [3] addresses T3, human TLR9 (Homo sapiens, UniProt Q9NR96).
T3 construct: host or cells: HEK-Blue cells
T3 sequence (Q9NR96 26-1032): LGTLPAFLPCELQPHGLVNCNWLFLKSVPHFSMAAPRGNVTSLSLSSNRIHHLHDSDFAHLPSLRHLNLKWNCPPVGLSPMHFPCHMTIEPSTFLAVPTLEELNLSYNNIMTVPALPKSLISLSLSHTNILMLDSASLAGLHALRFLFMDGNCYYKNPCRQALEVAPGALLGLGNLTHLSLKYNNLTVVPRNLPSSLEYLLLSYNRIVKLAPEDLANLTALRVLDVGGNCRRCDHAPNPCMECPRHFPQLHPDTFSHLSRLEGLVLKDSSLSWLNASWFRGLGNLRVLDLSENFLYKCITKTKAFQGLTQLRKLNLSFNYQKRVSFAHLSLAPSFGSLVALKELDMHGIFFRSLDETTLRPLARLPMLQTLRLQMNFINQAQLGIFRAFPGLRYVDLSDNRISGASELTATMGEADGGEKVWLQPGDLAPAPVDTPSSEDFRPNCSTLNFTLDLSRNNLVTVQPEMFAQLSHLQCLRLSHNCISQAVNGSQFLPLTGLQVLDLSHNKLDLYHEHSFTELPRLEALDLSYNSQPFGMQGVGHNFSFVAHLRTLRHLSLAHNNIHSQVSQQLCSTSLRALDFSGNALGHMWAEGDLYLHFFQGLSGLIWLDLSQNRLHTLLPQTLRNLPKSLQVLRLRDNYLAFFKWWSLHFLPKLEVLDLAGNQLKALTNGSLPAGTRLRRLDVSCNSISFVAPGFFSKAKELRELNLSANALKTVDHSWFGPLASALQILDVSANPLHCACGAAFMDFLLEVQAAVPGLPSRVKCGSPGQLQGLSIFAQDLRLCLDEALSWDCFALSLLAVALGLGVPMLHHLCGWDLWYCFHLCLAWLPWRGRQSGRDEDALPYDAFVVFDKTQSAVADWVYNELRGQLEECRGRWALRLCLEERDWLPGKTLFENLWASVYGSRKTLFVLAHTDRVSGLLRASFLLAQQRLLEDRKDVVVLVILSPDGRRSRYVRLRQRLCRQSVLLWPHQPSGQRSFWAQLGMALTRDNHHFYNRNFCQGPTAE
The experiment is described as follows: TLR9 inhibition reporter assay (HEK-Blue SEAP). Particulars: HEK-Blue cells overexpressing human TLR9, stimulated with ODN2006 5 nM, 22 hour incubation. The essentials:
as §1

The IC50 is the concentration needed to halve the response being measured. For the compound `Cc1cc(-c2cc3[nH]nc(C4CCC(NC5CC5)CC4)c3cc2C(C)C)cn2ncnc12` (single isomer, unassigned) [Example 119, N-cyclopropyl-4-(5-isopropyl-6-(8-methyl-[1,2,4]triazolo[1,5-a]pyridin-6-yl)-1H-indazol-3-yl)cyclohexan-1-amine], the IC50 is 1 nM in experiment [1], 0.1 nM in experiment [2] and 4.92 µM in experiment [3].

Turning to `Cc1cc(-c2cc3[nH]nc(C4CCC(NCC(=O)N(C)C)CC4)c3cc2C(C)C)cn2ncnc12` (single isomer, unassigned) [Example 125, 2-((4-(5-isopropyl-6-(8-methyl-[1,2,4]triazolo[1,5-a]pyridin-6-yl)-1H-indazol-3-yl)cyclohexyl)amino)-N,N-dimethylacetamide], the IC50 stood at 2.5 nM in experiment [1], 0.3 nM in experiment [2] and 12.1 µM in experiment [3].

For `Cc1cc(-c2cc3[nH]nc(C4CCC(N5CC6(COC6)C5)CC4)c3cc2C(C)C)cn2ncnc12` (single isomer, unassigned) [Example 128, 6-(4-(5-isopropyl-6-(8-methyl-[1,2,4]triazolo[1,5-a]pyridin-6-yl)-1H-indazol-3-yl)cyclohexyl)-2-oxa-6-azaspiro[3.3]heptane], the IC50 is 0.6 nM in experiment [1], 0.2 nM in experiment [2] and 9.56 µM in experiment [3].

`Cc1cc(-c2cc3[nH]nc(C4CCC(N5CC6(COC6)C5)CC4)c3cc2C(C)C)cn2ncnc12` (single isomer, unassigned) [Example 129, 6-(4-(5-isopropyl-6-(8-methyl-[1,2,4]triazolo[1,5-a]pyridin-6-yl)-1H-indazol-3-yl)cyclohexyl)-2-oxa-6-azaspiro[3.3]heptane]: the figures for the IC50 in experiment [1], in experiment [2] and in experiment [3] were 4.1 nM, 0.5 nM and 7.55 µM, respectively.

For `Cc1cc(-c2cc3[nH]nc(C4CCC(N5CCCC5)CC4)c3cc2C(C)C)cn2ncnc12` (single isomer, unassigned) [Example 130, 6-(5-isopropyl-3-(4-(pyrrolidin-1-yl)cyclohexyl)-1H-indazol-6-yl)-8-methyl-[1,2,4]triazolo[1,5-a]pyridine], the results for the IC50 in experiment [1], in experiment [2] and in experiment [3] were 0.2 nM, 0.1 nM and 4.2 µM, respectively.

For `Cc1cc(-c2cc3[nH]nc(C4CCC(N5CCCC5)CC4)c3cc2C(C)C)cn2ncnc12` (single isomer, unassigned) [Example 131, 6-(5-isopropyl-3-(4-(pyrrolidin-1-yl)cyclohexyl)-1H-indazol-6-yl)-8-methyl-[1,2,4]triazolo[1,5-a]pyridine], the results for the IC50 in experiment [1], in experiment [2] and in experiment [3] were 2 nM, 0.3 nM and 4.57 µM, respectively.

With `Cc1cc(-c2cc3[nH]nc(C4CCC(N5CC(F)(F)C5)CC4)c3cc2C(C)C)cn2ncnc12` (single isomer, unassigned) [Example 134, 6-(3-(4-(3,3-difluoroazetidin-1-yl)cyclohexyl)-5-isopropyl-1H-indazol-6-yl)-8-methyl-[1,2,4]triazolo[1,5-a]pyridine], the IC50 was determined as 2.5 nM in experiment [1], 0.2 nM in experiment [2] and 15.9 µM in experiment [3].

Regarding `Cc1cc(-c2cc3[nH]nc(C4CCC(N5CC(F)(F)C5)CC4)c3cc2C(C)C)cn2ncnc12` (single isomer, unassigned) [Example 135, 6-(3-(4-(3,3-difluoroazetidin-1-yl)cyclohexyl)-5-isopropyl-1H-indazol-6-yl)-8-methyl-[1,2,4]triazolo[1,5-a]pyridine], the IC50 came out at 15.5 nM in experiment [1], 9.4 nM in experiment [2] and 18.9 µM in experiment [3].

For `Cc1cc(-c2cc3[nH]nc(C4CCC(N5CC(C)(C)C5)CC4)c3cc2C(C)C)cn2ncnc12` (single isomer, unassigned) [Example 136, 6-(3-(4-(3,3-dimethylazetidin-1-yl)cyclohexyl)-5-isopropyl-1H-indazol-6-yl)-8-methyl-[1,2,4]triazolo[1,5-a]pyridine], the IC50 in experiment [1] is 26.3 nM; in experiment [2] it was 3.9 nM; in experiment [3], 4.9 µM.

Regarding `Cc1cc(-c2cc3[nH]nc(C4CCC(N5CC(C)(C)C5)CC4)c3cc2C(C)C)cn2ncnc12` (single isomer, unassigned) [Example 137, 6-(3-(4-(3,3-dimethylazetidin-1-yl)cyclohexyl)-5-isopropyl-1H-indazol-6-yl)-8-methyl-[1,2,4]triazolo[1,5-a]pyridine], the results for the IC50 in experiment [1], in experiment [2] and in experiment [3] were 5.5 nM, 0.6 nM and 8.68 µM, respectively.

On to `Cc1cc(-c2cc3[nH]nc(C4CCC(N5CCC5)CC4)c3cc2C(C)C)cn2ncnc12` (single isomer, unassigned) [Example 138, 6-(3-(4-(azetidin-1-yl)cyclohexyl)-5-isopropyl-1H-indazol-6-yl)-8-methyl-[1,2,4]triazolo[1,5-a]pyridine], for which the values for the IC50 in experiment [1], in experiment [2] and in experiment [3] were 1 nM, 0.5 nM and 5.87 µM, respectively.
